Data on 20 compounds can be found in US11999746B2, “Compounds” (GlaxoSmithKline Intellectual Property Development Limited, priority 2014, dated 2024).

The target in experiment [1] is T1, recombinant human Lp-PLA2 (Homo sapiens, UniProt Q13093).
T1 sequence (Q13093 22-441): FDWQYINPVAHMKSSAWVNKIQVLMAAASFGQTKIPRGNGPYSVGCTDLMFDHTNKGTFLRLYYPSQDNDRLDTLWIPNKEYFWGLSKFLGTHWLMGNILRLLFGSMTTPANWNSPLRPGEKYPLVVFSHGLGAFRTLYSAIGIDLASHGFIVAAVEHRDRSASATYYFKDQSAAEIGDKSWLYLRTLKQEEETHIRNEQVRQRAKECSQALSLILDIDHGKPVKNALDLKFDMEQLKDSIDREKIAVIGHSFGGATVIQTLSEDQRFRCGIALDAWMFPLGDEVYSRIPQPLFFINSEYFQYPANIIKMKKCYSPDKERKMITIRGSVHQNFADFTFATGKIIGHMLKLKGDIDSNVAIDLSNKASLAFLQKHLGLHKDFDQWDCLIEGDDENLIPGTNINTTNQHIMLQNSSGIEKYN
Description: (1a) PED6 assay, recombinant human Lp-PLA2 (rhLp-PLA2). The following applies: Examples 1-167 and 413-430 were tested here, one experiment or average of multiple experiments, read-out: rhLp-PLA2 (pIC50) (converted). In kind it is biochemical. The source says:
(1) Recombinant Human Lp-PLA2 Assays (rhLp-PLA2)
N-((6-(2,4-Dinitrophenyl)amino)-hexanoyl)-2-(4,4-difluoro-5,7-dimethyl-4-bora-3a,4a-diaza-s-indacene-3-pentanoyl)-1-hexadecanoyl-sn-glycero-3-phosphoethanolamine, triethylammonium salt (PED6) is a commercially available fluorescently-labeled phospholipid, which is commercially available from Invitrogene and Molecular Probes. There is a quenching […] and a Bodipy fluorescein (FL) group in the sn2 position. Upon cleavage with Lp-PLA2, the Bodipy FL group is liberated and then may result in an increase in fluorescence. Inhibitors of Lp-PLA2 therefore prevent this cleavage and no fluorescent increase is observed.
The PED6 assay was run as an unquenched 10 μL assay. The source plate containing the compounds to be tested was prepared by making 1:3 (by volume) serial dilution of the compounds within DMSO on 384-well microplate. Then, 0.01 μL of the compounds on compound source plate were transferred into 384 well Greiner 784076 (black) plates using ECHO liquid dispenser. 5 μL of recombinant human Lp-PLA2 enzyme (4 nM) rhLp-PLA2 in assay buffer of 50 mM HEPES, pH 7.4, 150 mM NaCl, 1 mM CHAPS) was added to each well of the plate. Plates were centrifuged for 10 sec at 500 rpm. After 30 minutes preincubation, 5 μL of substrate (4 μM PED6 [from 5 mM DMSO stock] in assay buffer of 50 mM HEPES, pH 7.4, 150 mM NaCl, 1 mM CHAPS) was added to 384 well Greiner 784076 (black) plates. Plates were centrifuged for 10 sec at 500 rpm. The plate was covered to protect it from light and incubated for 20 min at room temperature. The plates were read for fluorescence intensity at ex: 480/em: 540 using ViewLux microplate imager for Envision spectrofluroimeters. pIC50 data, curve and QC analysis was conducted by using XL fit module in Excel.

For experiment [2], the target named is T2, Lp-PLA2 in human plasma (Homo sapiens, UniProt Q13093).
T2 construct: from tissue; host or cells: pooled human plasma
T2 sequence (Q13093 22-441): T1 sequence (Q13093 22-441)
The experiment can be described thus: (3a) Lp-PLA2 human plasma Thio-PAF assay. The experiment is classed as biochemical. As to conditions: (3a) Thio-PAF assay, pooled human plasma; Examples 1-265 and 413-430 were tested here; read-out: pIC50 in the Lp-PLA2 human plasma assay (converted). In a few lines:
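Endogenous Lp-PLA2 activity in frozen pooled human plasma measured as thiol release from 2-thio-PAF, detected by CPM fluorescence (ex 380/em 485). Compound preincubation 30 min; 2-min reaction in HEPES pH 7.4 buffer with NEM, stopped with 5% TFA, read 40 min later at room temperature; values as pIC50.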

For the compound `O=c1nc(OCc2cc(F)c(Oc3cccc(C(F)(F)F)c3)c(F)c2)cc2n1CC1CCCN21` (stereo not shown) [Example E81, 3-((3,5-difluoro-4-(3-(trifluoromethyl)phenoxy)benzyl)oxy)-7,8,8a,9-tetrahydropyrrolo[1′,2′:3, 4]imidazo[1,2-c]pyrimidin-1(6H)-one], the values for the IC50 in experiment [1] and in experiment [2] were at most 1 nM and at most 0.1 µM, respectively.

As to `CN1c2cc(OCc3ccc(F)cc3F)nc(=O)n2CC12CCCC2` [Example 419, 7′4(2,4-difluorobenzyhoxy)-1-methyl-1H-spiro[cyclopentane-1,2′-imidazo[1,2-c]pyrimidin]-5′(3′H)-one], the results for the IC50 in experiment [1] and in experiment [2] were at most 100 nM and at most 10 µM, respectively.

Turning to `Cn1cc(Oc2c(F)cc(COc3cc4n(c(=O)n3)C[C@@H]3CCCCN43)cc2F)cn1` [Example E50, (S)-3-((3,5-difluoro-4-((1-methyl-1H-pyrazol-4-yl)oxy)benzyl)oxy)-6,7,8,9,9a,10-hexahydro-1H-pyrido[1′,2′:3,4]imidazo[1,2-c]pyrimidin-1-one], the IC50 in experiment [1] was at most 100 nM; in experiment [2] it was at most 10 µM.

Regarding `O=c1nc(OCc2ccc(F)cc2F)cc2n1CC1CCCCN21` (stereo not shown) [Example E8, 3-((2,4-Difluorobenzyl)oxy)-6,7,8,9,9a,10-hexahydro-1H-pyrido[1′,2′:3,4]imidazo[1,2-c] pyrimidin-1-one], the IC50 in experiment [1] was at most 100 nM; in experiment [2], at most 10 µM.

In the case of `O=c1nc(OCc2cc(F)c(Oc3ccnc(C(F)(F)F)c3)c(F)c2)cc2n1CC1COCCN21` (stereo not shown) [Example E107, 7-((3,5-Difluoro-4-((2-(trifluoromethyl)pyridin-4-yl)oxy)benzyl)oxy)-3,4, 11, 11a-tetra hydropyrimido[6′,1′:2,3]imidazo[5,1-c][1,4]oxazin-9(1H)-one], the figures for the IC50 in experiment [1] and in experiment [2] were 0.0398 nM and at most 0.1 µM, respectively.

Turning to `O=c1nc(OCc2cc(F)c(F)c(F)c2)cc2n1C[C@@H]1CCOCN21` [Example E139, (S)-3-((3,4,5-trifluorobenzyl)oxy)-8,9,9a,10-tetrahydropyrimido[6′,1′:2,3]imidazo[1,5-c][1,3] oxazin-1(6H)-one], the IC50 in experiment [1] was at most 100 nM; in experiment [2] it was at most 0.1 µM.

Consider `O=c1nc(OCc2cccc(F)c2)cc2n1C[C@H]1CCCCN21` [Example E52, (R)-3-((3-Fluorobenzyl)oxy)-6,7,8,9,9a,10-hexahydro-1H-pyrido[1′,2′:3,4]imidazo[1,2-c] pyrimidin-1-one], for which the IC50 is at most 100 nM in experiment [1] and at most 0.1 µM in experiment [2].

In the case of `O=c1nc(OCc2ccc(Oc3cnc(C(F)(F)F)nc3)c(F)c2)cc2n1C[C@H]1CCCN21` [Example E69, (R)-3-((3-fluoro-4-((2-(trifluoromethyl)pyrimidin-5-yl)oxy)benzyl)oxy)-7,8,8a, 9-tetra hydropyrrolo[1′,2′:3,4]imidazo[1,2-c]pyrimidin-1(6H)-one], the IC50 in experiment [1] was at most 100 nM; in experiment [2], at most 0.1 µM.

For the compound `O=c1nc(OCc2cc(F)c(Oc3ccnc(C(F)(F)F)c3)c(F)c2)cc2n1CC1OCCCN21` (single isomer, unassigned) [Example E163, 7-((3,5-difluoro-4-((2-(trifluoromethyl)pyridin-4-yl)oxy)benzyl)oxy)-3,4,11,11a-tetrahydropyrimido[6′,1′:2,3]imidazo[5,1-b][1,3]oxazin-9(2H)-one], the IC50 was at most 100 nM in experiment [1] and at most 10 µM in experiment [2].

For `CN1c2cc(OCc3ccc(F)cc3F)nc(=O)n2CC12CCC2` [Example 416, 7′4(2,4-difluorobenzyhoxy)-1-methyl-1H-spiro[cyclobutane-1,2′-imidazo[1,2-c]pyrimidin]-5′(3′H)-one], the IC50 is at most 100 nM in experiment [1] and at most 10 µM in experiment [2].

As to `CCn1cc(Oc2c(F)cc(COc3cc4n(c(=O)n3)C[C@@H]3COCCN43)cc2F)cn1` [Example E121, (R)-7-((4-((1-ethyl-1H-pyrazol-4-yl)oxy)-3,5-difluorobenzyl)oxy)-3,4,11,11a-tetrahydropyrimido[6′,1′:2,3]imidazo[5,1-c][1,4]oxazin-9(1H)-one], the IC50 is at most 100 nM in experiment [1] and at most 10 µM in experiment [2].

`O=c1nc(OCc2cccc(F)c2)cc2n1C[C@H]1CCCN21` [Example E102, (R)-3-((3-fluorobenzyl)oxy)-7,8,8a,9-tetrahydropyrrolo[1′,2′:3,4]imidazo[1,2-c]pyrimidin-1(6H)-one]: the IC50 in experiment [1] is at most 100 nM; in experiment [2], at most 10 µM.

In the case of `O=c1nc(OCc2ccc(F)cc2F)cc2n1C[C@@H]1COCCN21` [Example E130, (R)-7-((2,4-difluorobenzyl)oxy)-3,4,11,11a-tetrahydropyrimido[6′,1′:2,3]imidazo[5,1-c][1,4] oxazin-9(1H)-one], the IC50 is at most 100 nM in experiment [1] and at most 10 µM in experiment [2].

For `O=c1nc(OCc2ccc(Oc3cnc(C(F)(F)F)nc3)c(F)c2)cc2n1CC1CCCCN21` (stereo not shown) [Example E43, 3-((3-fluoro-4-((2-(trifluoromethyl)pyrimidin-5-yl)oxy)benzyl)oxy)-6,7,8,9,9a,10-hexahydro-1H-pyrido[1′,2′:3,4]imidazo[1,2-c]pyrimidin-1-one], the IC50 was at most 100 nM in experiment [1] and at most 0.1 µM in experiment [2].

Regarding `N#Cc1cc(COc2cc3n(c(=O)n2)CC2CCCCN32)ccc1Oc1ccc(C(F)(F)F)cc1` (stereo not shown) [Example E23, 5-(((1-Oxo-6,7,8,9,9a,10-hexahydro-1H-pyrido[1′,2′:3,4]imidazo[1,2-c]pyrimidin-3-yl)oxy)methyl)-2-(4-(trifluoromethyl)phenoxy)benzonitrile], the results for the IC50 in experiment [1] and in experiment [2] were at most 1 nM and at most 0.1 µM, respectively.

`CN1c2cc(OCc3ccc(F)cc3F)nc(=O)n2CC12CCCCC2` [Example 427, 7′4(2,4-difluorobenzyhoxy)-1-methyl-1H-spiro[cyclohexane-1,2′-imidazo[1,2-c]pyrimidin]-5′(3′H)-one]: the IC50 is at most 100 nM in experiment [1] and at most 10 µM in experiment [2].

`CCn1cc(Oc2c(F)cc(COc3cc4n(c(=O)n3)CC3CCCN43)cc2F)cn1` (stereo not shown) [Example E64, 3-((4-((1-Ethyl-1H-pyrazol-4-yl)oxy)-3,5-difluorobenzyl)oxy)-7,8,8a, 9-tetrahydropyrrolo[1′,2′:3,4]imidazo[1,2-c]pyrimidin-1(6H)-one]: the values for the IC50 in experiment [1] and in experiment [2] were at most 100 nM and at most 10 µM, respectively.

Consider `CN1c2cc(OCc3cc(F)c(F)c(F)c3)nc(=O)n2CC12CCCCC2` [Example 422, 1′-methyl-7′-((3,4,5-trifluorobenzyl)oxy)-1′H-spiro[cyclohexane-1,2′-imidazo[1,2-c]pyrimidin]-5′(3′H)-one], for which the IC50 in experiment [1] is at most 100 nM; in experiment [2], at most 10 µM.

As for `CN1c2cc(OCc3cccc(F)c3F)nc(=O)n2CC12CCCC2` [Example 426, 7′4(2,3-difluorobenzyhoxy)-1-methyl-1H-spiro[cyclopentane-1,2′-imidazo[1,2-c]pyrimidin]-5′(3′H)-one], the values for the IC50 in experiment [1] and in experiment [2] were at most 100 nM and at most 0.1 µM, respectively.

As for `Cn1cc(Oc2c(F)cc(COc3cc4n(c(=O)n3)CC3CCCN43)cc2F)cn1` (stereo not shown) [Example E63, 3-((3,5-Difluoro-4-((1-methyl-1H-pyrazol-4-yl)oxy)benzyl)oxy)-7,8,8a,9-tetrahydro pyrrolo[1′,2′:3, 4] imidazo[1,2-c] pyrimidin-1(6H)-one], the figures for the IC50 in experiment [1] and in experiment [2] were at most 100 nM and at most 10 µM, respectively.
